Measurements as given in ChEMBL document CHEMBL1201862, “PubChem BioAssay data set” (2004).
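Results reflect a 48-hour exposure of cells in 96-well plates to compound at five concentrations. GI50 = concentration required for 50% inhibition of growth.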 The source made the active and inactive calls. Cut-off read from the data, not from the text of the source: active = GI50 up to about 1.1 µM and inactive = higher.

Columns and labels:
Assay in all cases: DTP human tumour cell line panel, 48 h
HCC 2998 = test system: HCC 2998
U-251 = test system: U-251
RPMI-8226 = test system: RPMI-8226
RXF 393 = test system: RXF 393
SR = test system: SR
NCI-H226 = test system: NCI-H226
MDA-MB-231 = test system: MDA-MB-231
MOLT-4 = test system: MOLT-4
CCRF-CEM = test system: CCRF-CEM
OVCAR-5 = test system: OVCAR-5
UO-31 = test system: UO-31
ACHN = test system: ACHN
NCI-H23 = test system: NCI-H23
EKVX = test system: EKVX
786-0 = test system: 786-0
SK-MEL-5 = test system: SK-MEL-5
HOP-92 = test system: HOP-92
OVCAR-8 = test system: OVCAR-8
COLO 205 = test system: COLO 205
SF-295 = test system: SF-295

Measured: GI50

CCC(=O)NC(Nc1ccc(O)cc1)(C(F)(F)F)C(F)(F)F
inactive: HCC 2998 > 100 µM | U-251 73.6 µM | RPMI-8226 33.3 µM | RXF 393 28.8 µM | SR 36.5 µM | NCI-H226 > 100 µM | MDA-MB-231 73.8 µM | MOLT-4 42.5 µM | CCRF-CEM 19.6 µM | OVCAR-5 > 100 µM | UO-31 35.6 µM | ACHN 56 µM | NCI-H23 67.8 µM | EKVX > 100 µM

COc1cc(/C=c2\sc3n(c2=O)C(c2ccc(Cl)cc2)C2=C(CCCC2C)N=3)cc(OC)c1OC (centres undefined)
inactive: U-251 > 100 µM | RPMI-8226 > 100 µM | RXF 393 > 100 µM | SR > 100 µM | 786-0 > 100 µM | SK-MEL-5 83 µM | HOP-92 > 100 µM | MDA-MB-231 25.9 µM | MOLT-4 > 100 µM | CCRF-CEM > 100 µM | OVCAR-5 > 100 µM | UO-31 > 100 µM | ACHN > 100 µM | OVCAR-8 > 100 µM | EKVX > 100 µM

O=C(O)c1cc([N+](=O)[O-])cc2c(=O)c3cnccc3[nH]c12
inactive: HCC 2998 > 100 µM | U-251 > 100 µM | RPMI-8226 > 100 µM | RXF 393 > 100 µM | SR > 100 µM | SK-MEL-5 > 100 µM | NCI-H226 > 100 µM | MDA-MB-231 > 100 µM | COLO 205 > 100 µM | MOLT-4 54.8 µM | CCRF-CEM > 100 µM | OVCAR-5 > 100 µM | UO-31 > 100 µM | OVCAR-8 > 100 µM | NCI-H23 > 100 µM | SF-295 > 100 µM

COC(=O)c1ccc(/C=C2\Cc3ccccc3C2=O)cc1
inactive: HCC 2998 > 100 µM | U-251 > 100 µM | RPMI-8226 > 100 µM | RXF 393 > 100 µM | SR > 100 µM | 786-0 > 100 µM | SK-MEL-5 > 100 µM | MDA-MB-231 > 100 µM | COLO 205 > 100 µM | MOLT-4 > 100 µM | CCRF-CEM > 100 µM | UO-31 > 100 µM | ACHN > 100 µM | OVCAR-8 > 100 µM | NCI-H23 > 100 µM | EKVX > 100 µM | SF-295 > 100 µM

CC1=NN=C(N)N/C1=C/C(Sc1ccc(Cl)cc1)c1cccs1 (centres undefined)
inactive: HCC 2998 12.4 µM | U-251 24.5 µM | RPMI-8226 12.2 µM | RXF 393 17.4 µM | 786-0 18.5 µM | SK-MEL-5 11.5 µM | HOP-92 28.1 µM | NCI-H226 17 µM | MDA-MB-231 > 10 µM | COLO 205 22.1 µM | MOLT-4 13.6 µM | CCRF-CEM 3.52 µM | OVCAR-5 18.5 µM | UO-31 4.45 µM | ACHN 12.9 µM | OVCAR-8 16 µM | NCI-H23 13.9 µM | EKVX 14.4 µM | SF-295 11.7 µM

O/N=C1/CC2(N3CCOCC3)C3CC/C(=N\O)C2CC1(Cc1ccccc1)C3 (centres undefined)
inactive: HCC 2998 > 100 µM | U-251 > 100 µM | RXF 393 18.3 µM | SR > 100 µM | 786-0 > 100 µM | SK-MEL-5 44.4 µM | NCI-H226 > 100 µM | MDA-MB-231 > 100 µM | COLO 205 82 µM | MOLT-4 > 100 µM | CCRF-CEM > 100 µM | OVCAR-5 > 100 µM | UO-31 > 100 µM | ACHN > 100 µM | OVCAR-8 > 100 µM | NCI-H23 > 100 µM | EKVX > 100 µM | SF-295 > 100 µM
